Results published in US20250345344A1, “NOVEL NRF2 ACTIVATOR AND USE THEREOF” (SHANGHAI INSTITUTE FOR BIOMEDICAL AND PHARMACEUTICAL …, priority 2022, published 2025).

Experiments:
[1] = tested on: Keap1-Nrf2/ARE signaling pathway; experiment: Western blot of Keap1-Nrf2/ARE pathway related proteins in H2O2 induced SH-SY5Y nerve cell injury model; format: cell-based, human; settings: NAC 1 mM pre-treated 1 hour, then H2O2 400 μM 24 hours, P<0.05
Procedure: (§1) The culture of cells. Human neuroblastoma cells SH-SY5Y (American Type Culture Collection, Manassas, VA, USA) were cultivated in an incubator at 37° C. and a volume fraction of 5% CO2. The culture medium contains DMEM/F-12, 2 mM glutamine, 100 U/ml penicillin, 100 μg/ml streptomycin, and 10% FBS. Cells were seeded into a 96 well plate at a density of 2×10^4 cells per well and subjected to proliferation until 90%.
(§2) The cells were randomly divided into four groups: blank control group, hydrogen peroxide group (Veh), Mep-S group, and NAC group (a neuroprotective drug used as a positive control). The cells of Mep-S group (1 μM) and NAC group (1 mM) were pre-treated with corresponding concentrations of drugs for 1 hour. Then, except for the blank control group which was given physiological saline, the cells of all other groups were incubated with H2O2 (400 μM) for 24 hours.
Western blot was used to detect the expression levels of neuronal apoptosis protein (Caspase3) and Keap1-Nrf2/ARE pathway related proteins (Keap1, Nrf2, HO-1, NQO-1, etc.) in each group. The bands were visualized using enhanced chemiluminescence (Pierce, Rockford, IL, USA) and quantitative analysis was performed using Image Studio Lite 5.2.

[2] = tested on: SH-SY5Y cells; experiment: Annexin V/PI dual staining, apoptosis by flow cytometry in H2O2 injured SH-SY5Y cells; format: cell-based, human; settings: NAC 1 mM pre-treated 1 hour, then H2O2 400 μM 24 hours; P<0.05
Procedure: as §1, §2
Annexin V/PI dual staining method was used to detect the protective effect of Mep-S on cellular oxidative damage. Cell apoptosis was measured by flow cytometry using FITC Annexin V apoptosis detection kit (BD Pharmingen, Franklin Lakes, NJ, USA). The operation was performed following the instructions.

[3] = tested on: ovarian granulosa cells; experiment: Protection of primary ovarian granulosa cells against doxorubicin (DOX) cytotoxicity, CCK-8; format: cell-based, mice; settings: DOX alone, final concentration 25 μg/mL
Procedure: In-vitro-Culture of granulosa cells of mice. Female ICR mice aged 21 to 23 days were euthanized by dislocation after anesthesia. After disinfecting the abdominal skin with 75% alcohol, bilateral ovaries were taken out and antral follicles were punctured under dissecting microscope to release granulosa cells into a M2 culture medium containing 20% FBS. Then the culture medium was centrifuged at 1,000 revolutions per minute for 5 minutes. Supernatant was discarded, and residue was washed three times with a culture medium, and then was placed in a 96 well plate in an alpha MEM culture medium containing 5% FBS for further culture. […]
After the granulosa cells in a 96 well plate prolificated to 70% to 80%, the culture medium was taken out, and 10 μL of the test drug (C1 (a compound represented by Formula I, m is 3, R1 is OH, and R2 is H), C2 (a compound represented by Formula I, m is 3, R1 is Cl, and R2 is H), C3 (a compound represented by Formula I, m is 3, R1 is OCH3, and R2 is H), C4 (a compound represented by Formula I, m is 3, R1 is H, and R2 is H)), 10 μL of DOX with a final concentration of 25 μg/mL, and 80 μL of fresh culture medium were sequentially added. […] The absorbance (OD) value (450 nm) of each well was measured using an enzyme-linked immunosorbent assay (ELISA) reader to calculate the survival rate of granulosa cells of mice. […]

[4] = compared with H2O2 damage group

| SMILES | phosphorylation level of Akt [1] | level of HO-1 protein [1, 4] | level of Keap 1 protein [1, 4] | level of NQO-1 protein [1, 4] | level of Nrf2 protein in the cell nucleus [1, 4] | level of Nrf2 protein in the cytoplasm [1, 4] | apoptosis rate of SH-SY5Y cells [2] | Cell survival rate (%) ([3]; 24 hours, CCK-8 (positive control group)) | growth of granulosa cells (in words) ([3]; p<0.01 versus negative control) |
| --- | --- | --- | --- | --- | --- | --- | --- | --- | --- |
| CC(=O)N[C@@H](CS)C(=O)O [NAC] | significantly restores its expression level | significantly inhibits the decrease | inhibits the increase | significantly inhibits the decrease | significantly inhibits the decrease | inhibits the increase | significantly reduces the apoptosis rate | – | – |
| COc1cccc2c1C(=O)c1c(O)c3c(c(O)c1C2=O)C[C@@](O)(C(=O)CO)C[C@@H]3O[C@H]1C[C@H](N)[C@H](O)[C@H](C)O1 [DOX, doxorubicin] | – | – | – | – | – | – | – | 61.8 | significantly inhibited the growth |
